Laboratory results published in US11945801B2, “Bicyclic aza compounds as muscarinic M1 and/or M4 receptor agonists” (Heptares Therapeutics Limited, priority 2018, dated 2024).
Where two headings read alike, the source gives them in different places.

What was measured:
[1] = target: T1, human muscarinic M4 receptor (Homo sapiens, UniProt P08173); assay: Alphascreen Surefire phospho-ERK1/2 functional assay, M4; assay type: cell-based; conditions: for EC50 / % Emax cf. ACh, M4: CHO cells stably expressing human M4; for EC50: agonist 5 min, 37° C., read-out: pEC50 M4 (converted); for Emax: CHO
T1 construct: expressed in transfected cells
T1 sequence (P08173 1-479): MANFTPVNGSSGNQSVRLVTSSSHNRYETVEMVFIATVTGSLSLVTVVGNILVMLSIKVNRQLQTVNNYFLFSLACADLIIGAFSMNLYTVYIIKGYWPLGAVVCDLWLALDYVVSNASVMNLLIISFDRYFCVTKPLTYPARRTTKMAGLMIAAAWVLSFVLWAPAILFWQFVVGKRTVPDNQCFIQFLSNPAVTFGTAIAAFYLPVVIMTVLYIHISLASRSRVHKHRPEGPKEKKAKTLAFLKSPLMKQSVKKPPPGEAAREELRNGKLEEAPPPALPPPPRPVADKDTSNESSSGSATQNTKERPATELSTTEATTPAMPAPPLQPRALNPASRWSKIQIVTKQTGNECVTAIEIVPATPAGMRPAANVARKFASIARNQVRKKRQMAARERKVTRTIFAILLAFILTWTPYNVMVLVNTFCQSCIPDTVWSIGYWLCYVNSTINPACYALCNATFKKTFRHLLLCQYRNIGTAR
Protocol: (§1) ERK1/2 phosphorylation is a downstream consequence of both Gq/11 and Gi/o protein coupled receptor activation, making it highly suitable for the assessment of M1, M3 (Gq/11 coupled) and M2, M4 receptors (Gi/o coupled), rather than using different assay formats for different receptor subtypes. CHO cells stably expressing the human muscarinic M1, M2, M3 or M4 receptor were plated (25K/well) onto 96-well tissue culture plates in MEM-alpha+10% dialysed FBS. Once adhered, cells were serum-starved overnight. Agonist stimulation was performed by the addition of 5 μL agonist to the cells for 5 min (37° C.). Media was removed and 50 μL of lysis buffer added. After […], a 4 μL sample was transferred to 384-well plate and 7 μL of detection mixture added.
(§2) Isomer assignment (Isomer 1, Isomer 2, etc.) is based on the retention time of the compound using the separation technique that was performed in the final purification step. By implication, this could be reversed phase HPLC, chiral HPLC or chiral SFC retention time, and this will vary from compound to compound.

[2] = target: T2, human muscarinic M1 receptor (Homo sapiens, UniProt P11229); assay: Alphascreen Surefire phospho-ERK1/2 functional assay, M1; assay type: cell-based; conditions: for EC50: agonist 5 min, 37° C.; for Emax: CHO
T2 sequence (P11229 1-460): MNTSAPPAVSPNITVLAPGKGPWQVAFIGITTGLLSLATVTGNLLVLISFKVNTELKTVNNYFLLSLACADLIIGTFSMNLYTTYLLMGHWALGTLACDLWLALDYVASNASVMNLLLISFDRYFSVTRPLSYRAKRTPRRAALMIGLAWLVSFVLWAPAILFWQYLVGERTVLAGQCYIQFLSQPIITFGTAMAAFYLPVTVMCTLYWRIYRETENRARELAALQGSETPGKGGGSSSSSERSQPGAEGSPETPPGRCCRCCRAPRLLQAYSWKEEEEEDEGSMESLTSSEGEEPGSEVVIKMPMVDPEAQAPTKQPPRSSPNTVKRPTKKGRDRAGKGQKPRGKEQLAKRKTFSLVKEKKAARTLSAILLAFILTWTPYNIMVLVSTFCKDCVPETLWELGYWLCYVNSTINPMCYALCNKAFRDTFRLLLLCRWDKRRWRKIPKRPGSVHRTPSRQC
Protocol: as §1, §2

[3] = CHO cells stably expressing human M1, read-out: pEC50 M1 (converted)
[4] = read-out: % Emax cf. ACh, M4, CHO cells stably expressing human M4, Emax relative to ACh
[5] = read-out: % Emax cf. ACh, M1, CHO cells stably expressing human M1, Emax relative to ACh

Structure (SMILES)	EC50 [1] [nM]	Emax ([1]; read-out: % Emax cf. ACh, M4) [%]	EC50 [2, 3] [nM]	Emax ([2]; read-out: % Emax cf. ACh, M1) [%]	Emax [1, 4] [%]	Emax [2, 5] [%]	% Emax cf. ACh, M4 ([1]; Emax relative to ACh, listed as 4-5 Isomer 2) [%]	% Emax cf. ACh, M1 ([2]; CHO cells stably expressing human M1, Emax relative to ACh, listed as 4-5 Isomer 2) [%]	% Emax cf. ACh, M4 ([1]; Emax relative to ACh, listed as 4-9 Isomer 2) [%]	% Emax cf. ACh, M1 ([2]; CHO cells stably expressing human M1, Emax relative to ACh, listed as 4-9 Isomer 2) [%]	EC50 ([2]; pEC50 M1, CHO cells stably expressing human M1) [nM]
CCOC(=O)N1C2CCC1CC(N1CC(CC(=O)N(CC)C(C)C)C1)C2 (mixture of isomers) [Example 1-2 Isomer mixture, Ethyl-3-(3-(2-(ethyl(isopropyl)amino)-2-oxoethyl)azetidin-1-yl)-8-azabicyclo[3.2.1]octane-8-carboxylate]	> 20000	7	182	100	–	–	–	–	–	–	–
CCOC(=O)N1C2CCC1CC(N1CC(OC(=O)N3CCCOCC3)C1)C2 (mixture of isomers) [Example 5-2 Isomer mixture, 1-(8-(Ethoxycarbonyl)-8-azabicyclo[3.2.1]octan-3-yl)azetidin-3-yl 1,4-oxazepane-4-carboxylate]	> 20000	19	2240	92	–	–	–	–	–	–	–
CCOC(=O)N1C2CCC1CC(N1CC(CC(=O)N3CCC34CCC4)C1)C2 (single isomer, unassigned) [Example 1-3 Isomer 2, Ethyl-3-(3-(2-oxo-2-(1-azaspiro[3.3]heptan-1-yl)ethyl)azetidin-1-yl)-8-azabicyclo[3.2.1]octane-8-carboxylate]	> 20000	19	115	103	–	–	–	–	–	–	–
CCOC(=O)N1CC2CCC1CC2N1CC(CC(=O)N2CCCOCC2)C1 (single isomer, unassigned) [Example 2-4 Isomer 1, Ethyl-5-(3-(2-(1,4-oxazepan-4-yl)-2-oxoethyl)azetidin-1-yl)-2-azabicyclo[2.2.2]octane-2-carboxylate]	> 20000	–	1020	–	9	58	–	–	–	–	–
CCOC(=O)N1C2CCCC1CC(N1CC(CC(=O)N(CC)CC)C1)C2 (single isomer, unassigned) [Example 3-1 Isomer 1, Ethyl-3-(3-(2-(diethylamino)-2-oxoethyl)azetidin-1-yl)-9-azabicyclo[3.3.1]nonane-9-carboxylate]	> 20000	23	813	106	–	–	–	–	–	–	–
CCOC(=O)N1C2CCCC1CC(N1CC(CC(=O)N3CCCC3)C1)C2 (single isomer, unassigned) [Example 3-2 Isomer 1, Ethyl-3-(3-(2-oxo-2-(pyrrolidin-1-yl)ethyl)azetidin-1-yl)-9-azabicyclo[3.3.1]nonane-9-carboxylate]	933	68	4790	68	–	–	–	–	–	–	–
CCOC(=O)N1CCC2(CC(N3CC(OC(=O)N4CCCOCC4)C3)C2)C1 (single isomer, unassigned) [Example 4-3 Isomer 2, 1-(6-(Ethoxycarbonyl)-6-azaspiro[3.4]octan-2-yl)azetidin-3-yl 1,4-oxazepane-4-carboxylate]	1020	–	372	–	46	104	–	–	–	–	–
CCOC(=O)N1CC2(CCC(N3CC(OC(=O)N(CC)CC)C3)C2)C1 (single isomer, unassigned) [Example 4-5 Isomer 2, Ethyl 6-(3-((diethylcarbamoyl)oxy)azetidin-1-yl)-2-azaspiro[3.4]octane-2-carboxylate]	> 20000	–	1120	–	–	–	10	44	–	–	–
CCN(CC)C(=O)OC1CN(C2CCC3(C2)CN(C(=O)OC)C3)C1 (single isomer, unassigned) [Example 4-6 Isomer 1, Methyl 6-(3-((diethylcarbamoyl)oxy)azetidin-1-yl)-2-azaspiro[3.4]octane-2-carboxylate]	1120	–	631	–	33	92	–	–	–	–	–
CCOC(=O)N1CC2(CCC(N3CC(OC(=O)N4CCCOCC4)C3)C2)C1 (single isomer, unassigned) [Example 4-9 Isomer 2, 1-(2-(Ethoxycarbonyl)-2-azaspiro[3.4]octan-6-yl)azetidin-3-yl 1,4-oxazepane-4-carboxylate]	389	–	5620	–	–	–	–	–	85	84	–
CCOC(=O)N1CC2CCC1CC2N1CC(OC(=O)N(CC)CC)C1 (single isomer, unassigned) [Example 6-1 Isomer 1, Ethyl 5-(3-((diethylcarbamoyl)oxy)azetidin-1-yl)-2-azabicyclo[2.2.2]octane-2-carboxylate]	> 20000	–	1050	–	9	65	–	–	–	–	–
CCOC(=O)N1CC2CCC1CC2N1CC(OC(=O)N2CCCC2)C1 (single isomer, unassigned) [Example 6-2 Isomer 1, Ethyl 5-(3-((pyrrolidine-1-carbonyl)oxy)azetidin-1-yl)-2-azabicyclo[2.2.2]octane-2-carboxylate]	646	–	6920	–	55	83	–	–	–	–	–
CCOC(=O)N1CC2CCC1CC2N1CC(OC(=O)N2CCCCC2)C1 (single isomer, unassigned) [Example 6-3 Isomer 1, Ethyl 5-(3-((piperidine-1-carbonyl)oxy)azetidin-1-yl)-2-azabicyclo[2.2.2]octane-2-carboxylate]	1620	–	355	–	35	92	–	–	–	–	–
CCOC(=O)N1CC2CCC1CC2N1CC(OC(=O)N2CCCOCC2)C1 (single isomer, unassigned) [Example 6-5 Isomer 1, 1-(2-(Ethoxycarbonyl)-2-azabicyclo[2.2.2]octan-5-yl)azetidin-3-yl 1,4-oxazepane-4-carboxylate]	> 20000	–	813	–	27	58	–	–	–	–	–
CCOC(=O)N1C2CCCC1CC(N1CC(OC(=O)N(CC)CC)C1)C2 (single isomer, unassigned) [Example 7-1 Isomer 1, Ethyl 3-(3-((diethylcarbamoyl)oxy)azetidin-1-yl)-9-azabicyclo[3.3.1]nonane-9-carboxylate]	2290	29	–	88	–	–	–	–	–	–	1290
CCOC(=O)N1C2COCC1CC(N1CC(OC(=O)N3CCCCCC3)C1)C2 (single isomer, unassigned) [Example 8-1 Isomer 1, Ethyl 7-(3-((azepane-1-carbonyl)oxy)azetidin-1-yl)-3-oxa-9-azabicyclo[3.3.1]nonane-9-carboxylate]	1860	43	257	104	–	–	–	–	–	–	–
CCOC(=O)N1CC2(CC(N3CC(OC(=O)N(CC)CC)C3)C2)C1 [Example 4-1, Ethyl 6-(3-((diethylcarbamoyl)oxy)azetidin-1-yl)-2-azaspiro[3.3]heptane-2-carboxylate]	1700	–	832	–	57	83	–	–	–	–	–
